Data: patent US6620397B2, “Material and method for treating photographic effluents” (Eastman Kodak Company, priority 2001, dated 2003)

Assay: Oxidation of cyclohexene to cyclohexanol followed by FT Raman spectroscopy
Procedure: When no imogolite was present in the test the volume of imogolite was replaced by an equivalent volume of water so as to retain a constant volume. The oxidation of the cyclohexene was followed by FT (Fourier transform) Raman spectroscopy by measuring the percentage of cyclohexene converted to cyclohexanol after 48 hours. The tests were carried out at ambient temperature.

**Q.** With `OO` [Example 13, hydrogen peroxide] as the molecule, how does the “Cyclohexene oxidized after 48 h (%)” value (5 g material, 20 ml cyclohexene in 80 ml methanol, ambient temperature, 48 hours) read?
**A.** The value was 3%.

**Q.** What about the “Oxidizing property towards cyclohexene (in words)” value (summary of Table I) of the same molecule?
**A.** Its value is “weak oxidizing agent”.
